Measured values as given in ChEMBL document CHEMBL1201862, “PubChem BioAssay data set” (2004).
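Briefly, cells in 96-well plates were exposed to five compound concentrations for 48 h, and endpoints were estimated by linear interpolation. GI50: concentration for 50% inhibition of growth.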 Activity calls are given as the source filed them. Cut-off read from the data, not from the text of the source: active = GI50 up to about 1.1 µM and inactive = higher.

How the values were obtained:
Assay in all cases: DTP human tumour cell line panel, 48 h
OVCAR-5 = system: OVCAR-5
OVCAR-8 = system: OVCAR-8
M19-MEL = system: M19-MEL
SN12C = system: SN12C
EKVX = system: EKVX
SK-MEL-28 = system: SK-MEL-28
DLD-1 = system: DLD-1
NCI-H23 = system: NCI-H23
SF-539 = system: SF-539
K562 = system: K562
ACHN = system: ACHN
U-251 = system: U-251
SF-295 = system: SF-295
A549 = system: A549
RXF 393 = system: RXF 393
NCI-H226 = system: NCI-H226

Measured: GI50

COCCCNC(=O)CC(=O)NCCCOC
inactive: OVCAR-5 > 100 µM | OVCAR-8 > 100 µM | M19-MEL > 100 µM | SN12C > 100 µM | EKVX > 100 µM | SK-MEL-28 > 100 µM | DLD-1 > 100 µM | NCI-H23 > 100 µM | SF-539 > 100 µM | K562 > 100 µM | ACHN > 100 µM | U-251 > 100 µM | SF-295 > 100 µM | A549 > 100 µM | RXF 393 > 100 µM

Cc1c(-c2ccccc2)c(=O)oc2ccc(Cl)cc12
inactive: OVCAR-5 > 100 µM | OVCAR-8 53.3 µM | M19-MEL > 100 µM | SN12C > 100 µM | EKVX 64.7 µM | SK-MEL-28 > 100 µM | DLD-1 > 100 µM | NCI-H23 57.8 µM | SF-539 38.2 µM | K562 > 100 µM | NCI-H226 > 100 µM | U-251 46.9 µM | SF-295 > 100 µM | A549 > 100 µM

CCOC(=O)C(C(=O)Cc1ccccc1)c1ccccc1 (stereo not drawn)
inactive: OVCAR-5 > 100 µM | OVCAR-8 > 100 µM | M19-MEL > 100 µM | SN12C > 100 µM | EKVX > 100 µM | SK-MEL-28 > 100 µM | DLD-1 > 100 µM | NCI-H23 > 100 µM | SF-539 > 100 µM | K562 > 100 µM | ACHN > 100 µM | NCI-H226 > 100 µM | U-251 > 100 µM | SF-295 > 100 µM | A549 > 100 µM

CCCCCC[C@@H]1CCC2C(CO)[C@@H](O)CC[C@@H]2C1 (stereo partly drawn)
inactive: OVCAR-5 18.5 µM | OVCAR-8 18.2 µM | M19-MEL 18.2 µM | SN12C 16.6 µM | EKVX 18.2 µM | SK-MEL-28 19.6 µM | DLD-1 18.8 µM | NCI-H23 16 µM | SF-539 18.7 µM | K562 21.3 µM | ACHN 19.1 µM | NCI-H226 20.6 µM | U-251 18.2 µM | SF-295 16.2 µM | A549 17.4 µM

COc1ccc(C(c2ccccc2C(=O)O)c2ccc(OC)c3ccccc23)c2ccccc12
inactive: OVCAR-5 15.1 µM | OVCAR-8 10.5 µM | M19-MEL 12.5 µM | SN12C 10.9 µM | EKVX 20.2 µM | DLD-1 7.31 µM | NCI-H23 > 10 µM | SF-539 12 µM | K562 5.2 µM | ACHN 10.4 µM | NCI-H226 20 µM | U-251 7.83 µM | SF-295 11.1 µM | A549 7.48 µM
